This note sets out measurements from patent publication US12545677B2, “Compounds useful as factor XIa inhibitors” (JANSSEN PHARMACEUTICA NV, priority 2020, dated 2026).

pIC50: −log10 of the molar value.

One may read the pIC50 as the IC50 on a negative log10 scale, so that one unit is a factor of ten.

The subject of series [1] is Salmonella typhimurium strains TA98 and TA mixed. Kind of series: AMES II assay. The series is classed as cell-based. Conditions: absence and presence of S9. How it is done:
Biological Example 7: AMES II Assay
The aim of this study was to evaluate compound(s) and/or their metabolite(s) for their ability to induce reverse mutations in a gene of histidine-requiring Salmonella typhimurium strains to produce histidine-independent strains of these bacteria, in the absence and in the presence of a mammalian metabolic activation system.
Mutagenic potential was assessed by using an in-house adaptation of the Ames II Mutagenicity Assay kit from Xenometrics (Boulder, CA, USA). The strains TA98 and TA mixed (a combination of 6 strains) used in this study were able to detect frame-shift mutations and base pair substitutions respectively. […]
In the in vitro gene reverse mutation test, effects were determined by exposing a mutant strain of Salmonella typhimurium to various concentrations of the test compound. […] These colonies (revertants) are readily detectable due to their ability to grow on a histidine deficient medium. […] The revertant bacteria are detected by their ability to grow in the absence of the amino acid required by the parent test strain. […] The strains containing the plasmid, pKM101, are reverted by a number of mutagens that are detected weakly or not at all with the non plasmid bearing parent strains. […]

In the next series the target is human plasma kallikrein (Homo sapiens, UniProt P03952). As to the kind of experiment: Kallikrein inhibition assay utilizing quenched AMC peptide substrate. The note with it: read-out: Plasma kallikrein (PK) IC50. The series is classed as biochemical. How it is done: Biological Example 2: Kallikrein Inhibition Assay
Utilizing Quenched AMC Peptide Substrate
A fluorescence intensity-based assay was used to monitor inhibition of human plasma kallikrein. The peptide substrate, Z-Gly-Pro-Arg-AMC (Purchased from Bachem; Catalog #1-1150) was chosen based on its relatively low KM for kallikrein which enables running the assay at lower substrate concentrations to control background fluorescence. The kinetic parameters for this substrate were determined by fitting titration data to the Michaelis-Menten equation yielding a KM=40 μM, kcat=0.76 s^−1, and kcat/KM=18932 M^−1s^−1.
Kallikrein FLINT assay was used with the following Z-Gly-Pro-Arg-AMC assay buffer: 50 mM Tris, pH 7.5, 100 mM NaCl, 5 mM CaCl2, 0.1 mg/mL BSA, 0.03% CHAPS. Assay buffer was prepared by mixing all ingredients fresh. 2× Z-Gly-Pro-Arg-AMC peptide substrate was prepared by diluting 10 mM stock into 1× assay buffer for a 100 μM working concentration (50 μM final concentration). The 2× kallikrein stock solution was prepared by diluting 14.76 μM stock in 1× assay buffer for a 4 nM working stock solution (2 nM final concentration).
Test compound(s) were run in an 11-point, 3-fold serial dilution with a final top compound concentration of 1 μM. Final DMSO in assay: 2% DMSO. 2 nM kallikrein and test compound were pre-incubated for 30 minutes and 50 μM substrate was then added to initiate the reaction. The assay was linear using 2 nM kallikrein greater than 30 minutes. More specifically, the assay was run as follows: • 100 nL of 1 mM test compound was dispensed into a black 384-well non-binding Greiner BioOne 784900 plate for 10 μM final concentration with 1% DMSO final concentration; • 5 μL of 1× assay buffer was dispensed to columns 24 (low control) and 5 μL 2× human kallikrein enzyme solution was dispensed to columns 1-23 (column 23 high control); • the plate was centrifuged with a cover plate at 500 rpm for 1 min • the plate was pre-incubated for 30 minutes at room temperature with plate covered; • 5 μL of 2× Z-Gly-Pro-Arg-AMC peptide substrate was dispensed into the entire plate, columns 1-24; • the plate was centrifuged with a “cover” plate at 500 rpm for 1 min; • the plate was read kinetically monitoring fluorescence intensity on the BMG PHERAStar at room temperature, using fluorescence module F1 340 mm/440 mm.
Percent inhibition (IC50) curves were generated per compound tested, and data was analyzed using a 4-parameter logistic fit using GeneData Screener. […]

human plasma kallikrein, sequence (P03952 391-638 limits assumed): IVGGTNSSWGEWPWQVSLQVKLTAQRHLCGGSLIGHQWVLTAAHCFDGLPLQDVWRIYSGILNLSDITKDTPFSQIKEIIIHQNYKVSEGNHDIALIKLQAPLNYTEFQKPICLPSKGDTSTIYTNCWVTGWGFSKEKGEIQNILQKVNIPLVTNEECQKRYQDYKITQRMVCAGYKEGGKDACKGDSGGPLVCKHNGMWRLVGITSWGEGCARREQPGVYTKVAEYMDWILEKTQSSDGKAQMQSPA
human plasma kallikrein, sequence (P03952 20-390 partner limits assumed): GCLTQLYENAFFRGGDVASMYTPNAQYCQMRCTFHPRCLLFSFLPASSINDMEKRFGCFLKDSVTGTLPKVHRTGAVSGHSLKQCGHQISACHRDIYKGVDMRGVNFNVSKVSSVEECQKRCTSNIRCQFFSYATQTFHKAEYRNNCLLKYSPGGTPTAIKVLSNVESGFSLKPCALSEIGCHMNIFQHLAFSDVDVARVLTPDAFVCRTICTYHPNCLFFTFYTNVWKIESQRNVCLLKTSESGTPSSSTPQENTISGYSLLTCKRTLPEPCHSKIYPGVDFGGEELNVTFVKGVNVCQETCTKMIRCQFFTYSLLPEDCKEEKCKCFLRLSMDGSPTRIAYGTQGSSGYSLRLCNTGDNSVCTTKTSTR

Turning to `O=C1C=C(c2c(-n3cnnn3)ccc(Cl)c2F)C[C@H]2CC[C@@H](c3ncc(-c4ccnc(CO)c4F)[nH]3)N12` [Compound of formula (I-A), (3S,8aR)-7-(3-Chloro-2-fluoro-6-(1H-tetrazol-1-yl)phenyl)-3-(5-(3-fluoro-2-(hydroxymethyl)pyridin-4-yl)-1H-imidazol-2-yl)-2,3,8,8a-tetrahydroindolizin-5(1H)-one], the “AMES II assay result” value in series [1] was “negative”. In the case of `O=C(O)c1nccc(-c2cnc([C@@H]3CC[C@@H]4CC(c5c(-n6cnnn6)ccc(Cl)c5F)=CC(=O)N43)[nH]2)c1F` [Compound of formula (II-A), 4-(2-((3S,8aR)-7-(3-chloro-2-fluoro-6-(1H-tetrazol-1-yl)phenyl)-5-oxo-1,2,3,5,8,8a-hexahydroindolizin-3-yl)-1H-imidazol-5-yl)-3-fluoropicolinic acid], on human plasma kallikrein, the pIC50 was 7.96.
